Results from patent publication US20170202826A1, “DOSAGE FORMS OF APIXABAN” (Pfizer Inc., priority 2009, published 2017).

Assay: Aqueous solubility of apixaban
Format: physicochemical
Conditions: aqueous medium, aqueous buffer; room temperature, pH 6.8

For `COc1ccc(-n2nc(C(N)=O)c3c2C(=O)N(c2ccc(N4CCCCC4=O)cc2)CC3)cc1` [apixaban, 1-(4-methoxyphenyl)-7-oxo-6-[4-(2-oxopiperidin-1-yl)phenyl]-4,5,6,7-tetrahydro-1H-pyrazolo[3.4-c]pyridine-3-carboxamide], the solubility was less than 1 µg/mL.
